Laboratory results from ChEMBL document CHEMBL4742388, “Inhibitors of cyclin-dependent kinase 7 (cdk7)” (2019).

system: A673; assay: Inhibition of cell proliferation of human A673 cells incubated for 72 hrs by CyQUANT assay; type: functional, cell-based; details: A673, 72 h

| Compound | IC50 |
| --- | --- |
| FC(F)(F)c1cnc(N[C@H]2CCCNC2)nc1-c1n[nH]c2ccccc12 | 20 nM |
| Clc1cnc(N[C@@H]2CCCNC2)nc1-c1c[nH]c2ccccc12 | 20 nM |
| Clc1cnc(N[C@H]2CCCNC2)nc1-c1c[nH]c2ccccc12 | ≤ 20 nM |
| CNC(=O)[C@H]1CNC[C@H](Nc2ncc(C(F)(F)F)c(-c3c[nH]c4ccccc34)n2)C1 | 20 nM |
| Clc1cnc(N[C@H]2CCCNC2)nc1-c1cn(-c2ccccc2)c2ccccc12 | 200 nM |
| O[C@@H]1CCNC[C@H]1Nc1ncc(Cl)c(-c2c[nH]c3ccccc23)n1 | 200 nM |
| N#Cc1ccc2c(-c3nc(N[C@H]4CCCNC4)ncc3Cl)c[nH]c2c1 | < 20 nM |
| Cn1cc(-c2ccc3[nH]cc(-c4nc(N[C@H]5CCCNC5)ncc4C(F)(F)F)c3c2)cn1 | 200 nM |
| CCc1cnc(N[C@H]2CCCNC2)nc1-c1c[nH]c2c(C)cccc12 | 20 nM |
| FC(F)(F)c1cnc(N[C@H]2CCCNC2)nc1-c1c[nH]c2cnc(Cl)cc12 | 20 nM |
| COCCn1cc(-c2nc(N[C@H]3CCCNC3)ncc2C(F)(F)F)c2ccccc21 | 200 nM |
| Fc1cccc2c(-c3nc(N[C@H]4CCCNC4)ncc3Cl)c[nH]c12 | < 20 nM |
| CC(=O)c1cccc2c(-c3nc(N[C@H]4CCCNC4)ncc3Cl)c[nH]c12 | < 20 nM |
| CCc1cnc(N[C@@H]2CCCNC2)nc1-c1n[nH]c2ncccc12 | 20 nM |
| Fc1cccc2c(-c3nc(N[C@H]4CCCNC4)ncc3Cl)n[nH]c12 | < 20 nM |
| FC(F)(F)c1cnc(N[C@H]2CNC[C@@H](c3nnc4ccccn34)C2)nc1-c1c[nH]c2ccccc12 | 200 nM |
| Cc1[nH]ncc1-c1cccc2c(-c3nc(N[C@@H]4CCCNC4)ncc3C(F)(F)F)c[nH]c12 | < 20 nM |
| CCc1cnc(N[C@H]2CCCNC2)nc1-c1c[nH]c2ncc(F)cc12 | 200 nM |
| N#C[C@@H]1CCN(C(=O)c2ccc3c(-c4nc(N[C@H]5CCCNC5)ncc4C(F)(F)F)c[nH]c3c2)C1 | 20 nM |
| Cc1[nH]c2ccccc2c1-c1nc(N[C@H]2CCCNC2)ncc1Cl | 20 nM |
| FC(F)(F)c1cnc(N[C@H]2CCCNC2)nc1-c1c[nH]c2cc(-c3cn[nH]c3)ccc12 | 20 nM |
| CCOP(=O)(OCC)c1ccc2[nH]cc(-c3nc(N[C@H]4CCCNC4)ncc3C(F)(F)F)c2c1 | 200 nM |
| FC(F)(F)c1cnc(N[C@H]2CCCNC2)nc1-c1c[nH]c2ccc(Cl)cc12 | < 20 nM |
| Cc1cccc2c(-c3nc(N[C@H]4CCCNC4)ncc3F)c[nH]c12 | 200 nM |
| C[C@H]1CCNC[C@@H]1Nc1ncc(Cl)c(-c2c[nH]c3ccccc23)n1 | 200 nM |
| C[C@H](O)c1cnc(N[C@H]2CCCNC2)nc1-c1c[nH]c2ccccc12 | 200 nM |

| Compound | IC50 |
| --- | --- |
| N#Cc1cccc2c(-c3nc(N[C@H]4CCCNC4)ncc3C(F)(F)F)c[nH]c12 | < 20 nM |
| C[C@@H]1CNC[C@@H](Nc2ncc(Cl)c(-c3c[nH]c4ccccc34)n2)C1 | 20 nM |
| Clc1cnc(NC2(c3ccccc3)CCCNC2)nc1-c1c[nH]c2ccccc12 (centres undefined) | 200 nM |
| CC1(C)CCNC[C@H]1Nc1ncc(C(F)(F)F)c(-c2c[nH]c3ccccc23)n1 | 200 nM |
| Fc1cccc2c(-c3nc(N[C@H]4CCCNC4)ncc3C(F)(F)F)n[nH]c12 | < 20 nM |
| F[C@@H]1CCNC[C@H]1Nc1ncc(Cl)c(-c2c[nH]c3ccccc23)n1 | 20 nM |
| Clc1cnc(N[C@H]2CCCNC2)nc1-c1c[nH]c2c(N3CCOCC3)cccc12 | 20 nM |
| COCCn1cc(-c2nc(N[C@H]3CCCNC3)ncc2Cl)c2ccccc21 | 200 nM |
| CC1CCC(Nc2ncc(Cl)c(-c3c[nH]c4ccccc34)n2)CN1 (centres undefined) | 20 nM |
| Clc1cnc(NC2CNCCC2c2ccccc2)nc1-c1c[nH]c2ccccc12 (centres undefined) | 200 nM |
| Fc1cnc2[nH]cc(-c3nc(N[C@H]4CCCNC4)ncc3C(F)(F)F)c2c1 | < 20 nM |
| Cc1ccc2[nH]cc(-c3nc(N[C@H]4CCCNC4)ncc3Cl)c2c1 | 200 nM |
| CNC(=O)[C@@H]1CNC[C@@H](Nc2ncc(C(F)(F)F)c(-c3c[nH]c4ccccc34)n2)C1 | 200 nM |
| Cc1cccc2c(-c3nc(N[C@H]4CCCNC4)ncc3Cl)c[nH]c12 | < 20 nM |
| Cn1cc(-c2ccc3c(-c4nc(N[C@H]5CCCNC5)ncc4C(F)(F)F)c[nH]c3c2)cn1 | < 20 nM |
| CNC(=O)[C@@H]1CNC[C@H](Nc2ncc(C(F)(F)F)c(-c3c[nH]c4ccccc34)n2)C1 | 20 nM |
| Cc1cnc(N[C@H]2CCCNC2)nc1-c1c[nH]c2ccccc12 | 20 nM |
| CC(C)n1cc(-c2nc(N[C@H]3CCCNC3)ncc2Cl)c2ccccc21 | 200 nM |
| CS(=O)(=O)c1cccc2c(-c3nc(N[C@H]4CCCNC4)ncc3C(F)(F)F)c[nH]c12 | < 20 nM |
| Cc1cccc2c(-c3nc(N[C@H]4CCCNC4)ncc3CC(C)C)c[nH]c12 | 200 nM |
| CC(C)c1cnc(N[C@H]2CCCNC2)nc1-c1c[nH]c2ccccc12 | 200 nM |
| FC(F)(F)c1cnc(N[C@H]2CCCNC2)nc1-c1c[nH]c2ccc(-c3cn[nH]c3)cc12 | 200 nM |
| Clc1cnc(N[C@H]2CCCNC2)nc1-c1c[nH]c2ccncc12 | 20 nM |
| FC(F)(F)c1cnc(N[C@H]2CCCNC2)nc1-c1c[nH]c2c(Cl)cccc12 | < 20 nM |
| CCc1cnc(N[C@H]2CCCNC2)nc1-c1n[nH]c2ccccc12 | 20 nM |
| O=C(O)c1cccc2c(-c3nc(N[C@H]4CCCNC4)ncc3Cl)c[nH]c12 | 200 nM |

| Compound | IC50 |
| --- | --- |
| OC1CCC(c2cccc3c(-c4nc(N[C@H]5CCCNC5)ncc4C(F)(F)F)c[nH]c23)CC1 (some centres undefined) | < 20 nM |
| FC(F)(F)Cc1cnc(N[C@H]2CCCNC2)nc1-c1n[nH]c2ccccc12 | 20 nM |
| Clc1cnc(N[C@H]2CCCNC2)nc1-c1c[nH]c2cccnc12 | 20 nM |
| Clc1cnc(N[C@H]2CCCNC2)nc1-c1c[nH]c2ccc(N3CCOCC3)cc12 | 20 nM |
| CC1NCCCC1Nc1ncc(Cl)c(-c2c[nH]c3ccccc23)n1 (centres undefined) | 20 nM |
| CNC(=O)[C@H]1CNC[C@@H](Nc2ncc(C(F)(F)F)c(-c3c[nH]c4ccccc34)n2)C1 | 200 nM |
| Clc1cnc(N[C@H]2CCCNC2)nc1-c1c[nH]c2ncccc12 | 20 nM |
| CCOP(=O)(OCC)c1ccc2c(-c3nc(N[C@H]4CCCNC4)ncc3C(F)(F)F)c[nH]c2c1 | 20 nM |
| Clc1cnc(N[C@H]2CCCNC2)nc1-c1cnn2ccccc12 | 20 nM |
| N#Cc1ccc2c(-c3nc(N[C@@H]4CCCNC4)ncc3C(F)(F)F)c[nH]c2c1-c1ccnnc1 | < 20 nM |
| O[C@H]1CC[C@@H](c2cccc3c(-c4nc(N[C@H]5CCCNC5)ncc4C(F)(F)F)c[nH]c32)CC1 | 200 nM |
| CC1(Nc2ncc(Cl)c(-c3c[nH]c4ccccc34)n2)CCCNC1 (centres undefined) | 200 nM |
| CNC(=O)c1ccc2c(-c3nc(N[C@H]4CCCNC4)ncc3C(F)(F)F)c[nH]c2c1 | 20 nM |
| CNC(=O)c1cccc2c(-c3nc(N[C@H]4CCCNC4)ncc3C(F)(F)F)c[nH]c12 | 20 nM |
| N#Cc1ccc2[nH]cc(-c3nc(N[C@H]4CCCNC4)ncc3C(F)(F)F)c2c1 | 200 nM |
| Fc1cc2[nH]nc(-c3nc(N[C@H]4CCCNC4)ncc3C(F)(F)F)c2cc1F | < 20 nM |
| C[C@@H](O)c1cnc(N[C@H]2CCCNC2)nc1-c1c[nH]c2ccccc12 | 200 nM |
| FC(F)(F)c1cnc(N[C@@H]2CNC[C@H](c3nnc4ccccn34)C2)nc1-c1c[nH]c2ccccc12 | ≤ 20 nM |
| Brc1cnc(N[C@@H]2CCCNC2)nc1-c1c[nH]c2ccccc12 | < 20 nM |
| Cc1cccc2c(-c3nc(N[C@H]4CCCNC4)ncc3C(F)(F)F)c[nH]c12 | < 20 nM |
| CCc1cnc(N[C@H]2CCCNC2)nc1-c1c[nH]c2ccccc12 | 20 nM |
| Fc1ccc2[nH]cc(-c3nc(N[C@H]4CCCNC4)ncc3Cl)c2c1 | 20 nM |
| CC1(O)CCN(C(=O)c2ccc3c(-c4nc(N[C@H]5CCCNC5)ncc4C(F)(F)F)c[nH]c3c2)C1 (single isomer, unassigned) | 200 nM |
| CC1(C)CCNC[C@@H]1Nc1ncc(C(F)(F)F)c(-c2c[nH]c3ccccc23)n1 (single isomer, unassigned) | 20 nM |

system: HCC70; assay: Inhibition of cell proliferation of human HCC70 cells incubated for 72 hrs by CyQUANT assay; type: functional, cell-based; details: HCC70, 72 h

| Compound | IC50 |
| --- | --- |
| CN1CCC[C@H](Nc2ncc(C(F)(F)F)c(-c3c[nH]c4cc(S(=O)(=O)N5CCC(C)(O)C5)ccc34)n2)C1 (some centres undefined) | 1000 nM |
| N#Cc1ccc2c(-c3nc(N[C@H]4CCCNC4)ncc3Cl)c[nH]c2c1 | < 100 nM |
| FC(F)(F)c1cnc(N[C@H]2CCCNC2)nc1-c1c[nH]c2cnc(Cl)cc12 | 100 nM |
| Fc1cncc(-c2ccc3c(-c4nc(N[C@H]5CCCNC5)ncc4C(F)(F)F)c[nH]c3c2)c1 | 100 nM |
| Fc1cccc2c(-c3nc(N[C@H]4CCCNC4)ncc3Cl)c[nH]c12 | 100 nM |
| Cc1[nH]ncc1-c1cccc2c(-c3nc(N[C@@H]4CCCNC4)ncc3C(F)(F)F)c[nH]c12 | 1000 nM |
| N#C[C@@H]1CCN(C(=O)c2ccc3c(-c4nc(N[C@H]5CCCNC5)ncc4C(F)(F)F)c[nH]c3c2)C1 | 100 nM |
| Fc1cnc2[nH]cc(-c3nc(N[C@H]4CCCNC4)ncc3C(F)(F)F)c2c1 | < 100 nM |
| Cc1cccc2c(-c3nc(N[C@H]4CCCNC4)ncc3Cl)c[nH]c12 | < 100 nM |
| FC(F)(F)c1cnc(N[C@H]2CCCNC2)nc1-c1c[nH]c2cc(-c3cccc(Oc4ccccc4)c3)ccc12 | 1000 nM |
| CS(=O)(=O)c1cccc2c(-c3nc(N[C@H]4CCCNC4)ncc3C(F)(F)F)c[nH]c12 | < 100 nM |
| CC(C)c1cnc(N[C@H]2CCCNC2)nc1-c1c[nH]c2ccccc12 | 1000 nM |
| CNC(=O)c1cccc2c(-c3nc(N[C@H]4CCCNC4)ncc3C(F)(F)F)cn(C)c12 | 1000 nM |
| Clc1cnc(N[C@H]2CCCNC2)nc1-c1c[nH]c2ncccc12 | < 100 nM |
| Clc1cnc(N[C@H]2CCCNC2)nc1-c1cnn2ccccc12 | 100 nM |
| N#Cc1ccc2c(-c3nc(N[C@@H]4CCCNC4)ncc3C(F)(F)F)c[nH]c2c1-c1ccnnc1 | < 100 nM |
| CNC(=O)c1cccc2c(-c3nc(N[C@H]4CCCNC4)ncc3C(F)(F)F)c[nH]c12 | 100 nM |
| Fc1ccc2[nH]cc(-c3nc(N[C@H]4CCCNC4)ncc3Cl)c2c1 | 100 nM |
| C[C@H]1CCNC[C@@H]1Nc1ncc(C(F)(F)F)c(-c2c[nH]c3ccccc23)n1 | 1000 nM |
| O=C(c1ccc2c(-c3nc(N[C@H]4CCCNC4)ncc3C(F)(F)F)c[nH]c2c1)N1CC[C@](O)(C(F)(F)F)C1 (single isomer, unassigned) | 1000 nM |
| CC1CCNCC1Nc1ncc(C(F)(F)F)c(-c2c[nH]c3ccccc23)n1 (single isomer, unassigned) | 100 nM |
| CC1(O)CCN(C(=O)c2ccc3c(-c4nc(N[C@H]5CCCNC5)ncc4C(F)(F)F)c[nH]c3c2)C1 (single isomer, unassigned) | 100 nM |
| CC[C@@]1(O)CCN(C(=O)c2ccc3c(-c4nc(N[C@H]5CCCNC5)ncc4C(F)(F)F)c[nH]c3c2)C1 (single isomer, unassigned) | 1000 nM |
| N#Cc1ccc2c(-c3nc(N[C@@H]4CCC5(CCC5)NC4)ncc3C(F)(F)F)c[nH]c2c1 (single isomer, unassigned) | 100 nM |
| COC1CCN(C(=O)c2ccc3c(-c4nc(N[C@H]5CCCNC5)ncc4C(F)(F)F)c[nH]c3c2)C1 (single isomer, unassigned) | 100 nM |
| N#Cc1ccc2c(-c3nc(N[C@H]4CCC5(CCC5)NC4)ncc3C(F)(F)F)c[nH]c2c1 (single isomer, unassigned) | 1000 nM |
| O=C(c1ccc2c(-c3nc(N[C@H]4CCCNC4)ncc3C(F)(F)F)c[nH]c2c1)N1CC[C@@](O)(C(F)(F)F)C1 (single isomer, unassigned) | 100 nM |
| CC[C@]1(O)CCN(C(=O)c2ccc3c(-c4nc(N[C@H]5CCCNC5)ncc4C(F)(F)F)c[nH]c3c2)C1 (single isomer, unassigned) | 100 nM |
